Assay results reported in patent US4943566A, “Novel 17-aryl-steroids” (Roussel Uclafi, priority 1987, dated 1990).

Assays:
[1] = tested on: mammary Tumoral cells MCF-7; assay: Anti-proliferative activity against the increase of mammary tumoral cells MCF-7 (ADN by DABA fluorimetry); assay type: cell-based; conditions: Homo sapiens, MCF7, 144 h; MCF-7 cells, SVF medium, 6 days, ADN content; read-out: CI50 in nM (concentration which inhibits by 50% the increase in the MCF 7 cells)
Procedure: The cell culture line MCF-7 was maintained in culture in SVF (1) medium at 37° C. in a humid atmosphere containing 5% CO2. The cells at subconfluence were collected by trypsination (0.05% trypsine, 0.02% EDTA) then rinsed by gentle centrifiguation. A sample of the cells in suspension was counted by the Malassez cell. To study the increase, the cells resuspended in SVF medium were innoculated at a rate of 30,000 cells per well in a multiwell plate (24 wells per 2.5 cm^2) 24 hours after the innoculation (Day 0), the test compound was added to the medium in an ethanolic solution (final ethanol concentration is 0.1%) a concentration of 10^-6 M. The control wells received the same concentration of ethanol. The mediums were totally renewed at 48 hours. At the end of the experiment (Day 6), the medium was aspirated and the cells were immediately fixed by 150 μl of methanol after a dose of ADN. The anti-proliferative activity of the products was determined by the capacity to inhibit ADN increase.
ADN is dosed by a fluorimetric method using DABA (3,5-diamino benzoic acid). 150 μl of DABA was added to each well and the plates were incubated for 45 minutes at 56° C. and then 1.5 ml of 1N hydrochloric acid was added. The fluoresence was measured with a fluorimeter (excitement length 400 nM-length of emission wave 500 nM). The amount of ADN per well was evaluated with respect to a standard scale obtained by treating under the same conditions an ADN standard of the calf thymus. The concentration in nM which inhibit by 50% the increase in the MCF 7 cells or CI50 was determined in the same manner with the results of the following Table.
The medium for culture of calf fetal serum (SVF) was prepared as follows: MEM medium (minimal essential medium) to which was added non-essential amino acids (GIBCO), peni-strepto (penicillin 100 U/ml, streptomycine 0.1 mg/ml), 0.1% fungizone, 50 ng/ml of insulin and a 10% final concentration of calf fetal serum free of endrogenic steroids.

[2] = molecular target: T1, progesterone receptors of rabbit uterus (Oryctolagus cuniculus, UniProt P06186); assay: Relative binding affinity (ARL), progesterone receptors of rabbit uterus; conditions: rabbit uterus cytosol, tritiated 17,21-dimethyl-19-nor-Δ4,9-pregnadiene-3,20-dione, cold reference hormone progesterone; for relative affinity of the bond (ARL), Progestogen, 2H: incubation 2H at 0° C.; for relative affinity of the bond (ARL), Progestogen, 24H: incubation 24H at 0° C.
T1 construct: The first test was on the progesterone receptors of rabbit uterus; from tissue; host or cells: uterus of estradiol-treated immature rabbits, 105,000 g supernatant (cytosol)
T1 sequence (P06186 1-930): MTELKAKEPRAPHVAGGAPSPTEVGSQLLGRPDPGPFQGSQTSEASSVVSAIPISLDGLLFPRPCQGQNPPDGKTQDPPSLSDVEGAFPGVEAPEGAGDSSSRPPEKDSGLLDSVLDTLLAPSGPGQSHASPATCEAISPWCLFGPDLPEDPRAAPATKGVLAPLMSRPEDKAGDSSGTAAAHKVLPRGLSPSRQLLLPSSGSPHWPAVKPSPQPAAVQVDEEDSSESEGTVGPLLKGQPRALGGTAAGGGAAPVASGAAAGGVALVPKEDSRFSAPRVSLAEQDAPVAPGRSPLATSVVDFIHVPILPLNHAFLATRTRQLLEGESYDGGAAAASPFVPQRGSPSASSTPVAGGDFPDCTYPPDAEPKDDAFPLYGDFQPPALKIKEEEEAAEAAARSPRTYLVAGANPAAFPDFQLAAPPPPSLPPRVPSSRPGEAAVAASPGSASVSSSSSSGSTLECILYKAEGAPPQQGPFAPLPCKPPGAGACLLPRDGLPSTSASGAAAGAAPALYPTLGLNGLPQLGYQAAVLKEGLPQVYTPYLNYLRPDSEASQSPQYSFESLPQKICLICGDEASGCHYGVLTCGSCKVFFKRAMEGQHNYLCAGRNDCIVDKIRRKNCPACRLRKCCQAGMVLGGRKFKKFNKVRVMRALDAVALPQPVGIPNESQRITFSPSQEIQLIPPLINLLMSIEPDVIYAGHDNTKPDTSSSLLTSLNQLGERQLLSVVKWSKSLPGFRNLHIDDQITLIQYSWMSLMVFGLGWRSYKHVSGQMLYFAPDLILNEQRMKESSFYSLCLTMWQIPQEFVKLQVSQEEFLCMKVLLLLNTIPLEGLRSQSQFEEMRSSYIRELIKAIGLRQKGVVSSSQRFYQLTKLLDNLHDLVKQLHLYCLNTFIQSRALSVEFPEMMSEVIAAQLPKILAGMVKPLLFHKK
Procedure: The first test was on the progesterone receptors of rabbit uterus in which immature rabbits weighing about 1 kg received a cutaneous application of […] of estradiol and 5 days after treatment, the animals were sacrificed. The […] was removed, weighed and homogenized at 0° C. with a Potter Teflon-glass ina buffered solution. TS (Tris 10 mM, 0.25M Saccharose, HCl, pH 7.4) (1 g of tissue per 50 ml of TS). The homogenate was ultracentrifuged at 105,000 g×90 minutes at 0° C. The surnageant samples were incubated at a time at (t) 0° C. with a constant concentration (T) of tritiated product (R) which is 17,21-dimethyl-19-nor-Δ^4,9 -pregnadiene-3,20-dione in the presence of increasing concentrations from 0 to 2500×10^-9 M or cold R or cold progestenone or cold test compound. The concentration of bound tritiated R was measured for each incubate by absorption technique on dextran carbon.
(§1) The relative affinity of the bond (ARL) was calculated in the same for the receptors. One traced the following 2 curves: the percentage of bond tritiated hormone B/T as a logarithmic function of the concentration of the cold reference hormone and B/T as a logarithmic function of the concentration of the cold test compound. Using the equation [formula] B/T max.=% of bound tritiated hormone for one incubation of tritiated hormone at concentration (T)
(§2) B/T min.=% of bound tritiated hormone for one incubation of tritiated hormone at a concentration T in the presence of a great excess of cold hormone (2500×10^-9 M).
(§3) The intersections of I50 lines and the curves permit an evaluation of the hormone concentration of the cold reference (CH) and the cold test compound (CX) which inhibited by 50% the bounding of tritiated hormone to the receptor. The ARL of the test compound was determined by the equation. [formula] and the following results were obtained.

[3] = molecular target: T2, glucocorticoid receptor, rat thymus (Rattus norvegicus, UniProt P06536); assay: Relative binding affinity (ARL), glucocorticoid receptor of rat thymus; conditions: rat thymus cytosol, tritiated dexamethasone, cold reference dexamethasone; for relative affinity of the bond (ARL), Glucocorticoid, 2H: incubation 2H at 0° C.; for relative affinity of the bond (ARL), Glucocorticoid, 24H: incubation 24H at 0° C.
T2 construct: The second test was a glucocrticoid receptor test on rat thymus; from tissue; host or cells: thymus of adrenalectomized male Sprague Dawley EOPS rats, 105,000 g supernatant (cytosol)
T2 sequence (P06536 1-795): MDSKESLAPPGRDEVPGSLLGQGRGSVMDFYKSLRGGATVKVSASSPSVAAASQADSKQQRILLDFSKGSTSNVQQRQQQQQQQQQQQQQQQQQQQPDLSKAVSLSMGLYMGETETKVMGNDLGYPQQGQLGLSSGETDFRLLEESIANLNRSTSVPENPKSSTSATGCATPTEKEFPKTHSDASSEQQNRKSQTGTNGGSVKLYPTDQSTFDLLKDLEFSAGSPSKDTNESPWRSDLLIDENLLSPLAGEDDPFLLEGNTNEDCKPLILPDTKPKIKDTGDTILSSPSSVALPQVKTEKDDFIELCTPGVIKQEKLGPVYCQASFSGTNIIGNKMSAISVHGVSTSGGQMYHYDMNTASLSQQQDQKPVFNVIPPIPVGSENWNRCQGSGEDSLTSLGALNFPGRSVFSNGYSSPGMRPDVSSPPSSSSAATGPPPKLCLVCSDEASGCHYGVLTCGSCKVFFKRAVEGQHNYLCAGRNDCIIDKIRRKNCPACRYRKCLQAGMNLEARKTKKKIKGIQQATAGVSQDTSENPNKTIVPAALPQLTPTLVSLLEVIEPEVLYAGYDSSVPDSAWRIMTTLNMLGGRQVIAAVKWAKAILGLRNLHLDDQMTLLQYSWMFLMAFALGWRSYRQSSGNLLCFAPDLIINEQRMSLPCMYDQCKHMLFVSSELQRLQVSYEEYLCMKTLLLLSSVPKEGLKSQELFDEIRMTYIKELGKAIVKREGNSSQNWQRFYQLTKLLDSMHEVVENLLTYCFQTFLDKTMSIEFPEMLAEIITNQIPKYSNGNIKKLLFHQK
Procedure: The second test was a glucocrticoid receptor test on rat thymus in which male rats of the Sprague Dawley EOPS strain weighing 160 to 200 g were surrenalectomized. 4 to 8 days after this ablation, the animals were killed and the thymus was removed and homogenized at 0° C. in a buffered TS solution. (Tris 10 mM, 0.25M saccharose, 2 mM dithiothreitol, HCl pH 7.4) with a Potter tetrafluoroethylene-glass (1 g of tissue per 10 ml/TS). The homogenate was ultracentrifuged at 105,000 for 90 minutes at 0° C. and the surnageant samples were incubated at 0° C. for a time t with a constant concentration T of tritiated dexamethasone in the presence of increasing concentrations (0-2500×10^-9 M) or cold dexamethasone or cold test compound. The concentration B of bound tritiated dexamethasone was measured for each incubate by carbon-dextran absorption technique.
as §1, §2, §3

SMILES	IC50 [1] [nM]	relative affinity of the bond (ARL), Progestogen, 2H [2]	relative affinity of the bond (ARL), Progestogen, 24H [2]	relative affinity of the bond (ARL), Glucocorticoid, 2H [3]	relative affinity of the bond (ARL), Glucocorticoid, 24H [3]
CN(C)c1ccc([C@H]2C[C@@]3(C)[C@@H](CC[C@@]3(O)c3ccc(O)cc3)[C@@H]3CCC4=CC(=O)CCC4=C32)cc1 [6 Product A]	50				
CN(C)c1ccc([C@H]2C[C@]3(C)C(c4ccc(O)cc4)=CC[C@H]3[C@@H]3CCC4=CC(=O)CCC4=C32)cc1 [6 Product B]	50				
CN(C)c1ccc(C2=CC[C@H]3[C@@H]4CCC5=CC(=O)CCC5=C4[C@@H](c4ccc(N(C)C)cc4)C[C@]23C)cc1 [Example 3, 11β,17-bis-(4-dimethylamino-phenyl)-Δ^4,9,16-estratriene-3-one]	800				
COc1ccc(C2=CC[C@H]3[C@@H]4CCC5=CC(=O)CCC5=C4[C@@H](c4ccc(N(C)C)cc4)C[C@]23C)cc1 [Example 5, 11β-(4-dimethylamino-phenyl)-17-(4-methoxy-phenyl)-Δ^4,9,16-estratriene-3-one]	1000				
CN(C)c1ccc([C@H]2C[C@@]3(C)[C@@H](CC[C@@]3(O)c3cccc(O)c3)[C@@H]3CCC4=CC(=O)CCC4=C32)cc1 [Example 13 (Product A), 11β-(4-dimethylamino-phenyl)-17α-(3-hydroxy-phenyl)-Δ^4,9-estradiene-17β-ol-3-one]		34	122	153	145
CN(C)c1ccc([C@H]2C[C@@]3(C)[C@@H](CC[C@]3(O)c3cccc(O)c3)[C@@H]3CCC4=CC(=O)CCC4=C32)cc1 [Example 13 (Product B), 11β-(4-dimethylaminophenyl)-17β-(3-hydroxy-phenyl)-Δ^4,9-estradiene-17α-ol-3-one]		1,9	1,7	76	63
CN(C)c1ccc([C@H]2C[C@@]3(C)[C@@H](CC[C@@]3(O)c3ccccc3)[C@@H]3CCc4cc(O)ccc4[C@H]32)cc1 [Example 14, 11β-(4-dimethylamino-phenyl)-17α-phenyl-Δ^1,3,5(10) -estratriene-3,17β-diol]		5	67	98	129
